We go through five compounds from ChEMBL document CHEMBL5715260, “Selectivity Literature for EUbOPEN Chemogenomic Library” (2024).

Molecules are shown by their SMILES.

The target in test [1] is T1, Nuclear receptor subfamily 2 group C member 1 (Homo sapiens) (UniProt P13056).
T1 sequence (whole entry): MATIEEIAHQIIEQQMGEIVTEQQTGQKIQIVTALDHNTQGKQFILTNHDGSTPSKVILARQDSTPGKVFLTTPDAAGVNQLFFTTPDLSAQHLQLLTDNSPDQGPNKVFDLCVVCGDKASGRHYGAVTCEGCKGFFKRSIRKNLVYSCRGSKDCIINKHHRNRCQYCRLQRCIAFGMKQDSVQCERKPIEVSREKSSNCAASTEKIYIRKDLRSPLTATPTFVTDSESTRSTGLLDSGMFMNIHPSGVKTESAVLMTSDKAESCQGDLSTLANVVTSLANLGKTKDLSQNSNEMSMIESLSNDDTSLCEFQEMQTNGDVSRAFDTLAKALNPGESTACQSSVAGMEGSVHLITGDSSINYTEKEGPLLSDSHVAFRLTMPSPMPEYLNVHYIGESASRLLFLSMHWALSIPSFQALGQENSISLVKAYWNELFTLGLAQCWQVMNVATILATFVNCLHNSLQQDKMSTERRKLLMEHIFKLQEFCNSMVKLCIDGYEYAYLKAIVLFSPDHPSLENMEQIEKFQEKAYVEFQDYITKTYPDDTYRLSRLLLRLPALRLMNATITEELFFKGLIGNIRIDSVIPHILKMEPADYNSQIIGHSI
The experiment in a line: Selectivity interaction (Reporter gene assay) EUB0000081c NR2C1. Set-up: recommended concentration 1 uM.

Test [2] concerns the target Nuclear receptor subfamily 2 group E member 1 (Homo sapiens) (UniProt Q9Y466). The experiment in a line: Selectivity interaction (Reporter gene assay) EUB0000081c NR2E1. The arrangement: recommended concentration 1 uM. Background: Reporter assays use an easily measured gene product as a stand-in for the process of interest.
The target in test [3] is Nuclear receptor subfamily 4immunitygroup A member 1 (Homo sapiens) (UniProt P22736). The experiment in a line: Selectivity interaction (Reporter gene assay) EUB0000081c NR4A1. The arrangement: recommended concentration 1 uM.
For test [4], the target named is T2, Alpha trans-inducing protein (Human alphaherpesvirus 1) (UniProt A0A5J6DW59). The experiment in a line: Selectivity interaction (Reporter gene assay) EUB0000081c UL48. Set-up: recommended concentration 1 uM.
Test [5] deals with T3, Retinoic acid receptor RXR-alpha (Homo sapiens) (UniProt P19793).
T3 sequence (whole entry): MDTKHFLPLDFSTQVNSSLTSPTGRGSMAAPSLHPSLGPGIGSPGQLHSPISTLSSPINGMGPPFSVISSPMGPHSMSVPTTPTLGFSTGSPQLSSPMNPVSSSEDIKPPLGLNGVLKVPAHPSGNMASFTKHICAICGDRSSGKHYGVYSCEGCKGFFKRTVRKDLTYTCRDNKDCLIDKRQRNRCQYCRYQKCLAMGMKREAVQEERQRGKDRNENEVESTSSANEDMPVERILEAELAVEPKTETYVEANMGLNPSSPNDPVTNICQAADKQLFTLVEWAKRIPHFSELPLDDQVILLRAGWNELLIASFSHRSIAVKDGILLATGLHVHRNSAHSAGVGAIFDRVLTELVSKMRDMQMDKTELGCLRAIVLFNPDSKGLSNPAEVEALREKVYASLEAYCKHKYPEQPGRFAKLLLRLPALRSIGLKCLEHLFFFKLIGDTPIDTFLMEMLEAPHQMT
The experiment in a line: Selectivity interaction (Reporter gene assay) EUB0000081c RXRA. Set-up: recommended concentration 1 uM.

The target of test [6] is Steroidogenic factor 1 (Homo sapiens) (UniProt Q13285). The experiment in a line: Selectivity interaction (Reporter gene assay) EUB0000081c NR5A1. Set-up: recommended concentration 1 uM.
For test [7], the target named is T4, Hepatocyte nuclear factor 4-alpha (Homo sapiens) (UniProt P41235).
T4 sequence (whole entry): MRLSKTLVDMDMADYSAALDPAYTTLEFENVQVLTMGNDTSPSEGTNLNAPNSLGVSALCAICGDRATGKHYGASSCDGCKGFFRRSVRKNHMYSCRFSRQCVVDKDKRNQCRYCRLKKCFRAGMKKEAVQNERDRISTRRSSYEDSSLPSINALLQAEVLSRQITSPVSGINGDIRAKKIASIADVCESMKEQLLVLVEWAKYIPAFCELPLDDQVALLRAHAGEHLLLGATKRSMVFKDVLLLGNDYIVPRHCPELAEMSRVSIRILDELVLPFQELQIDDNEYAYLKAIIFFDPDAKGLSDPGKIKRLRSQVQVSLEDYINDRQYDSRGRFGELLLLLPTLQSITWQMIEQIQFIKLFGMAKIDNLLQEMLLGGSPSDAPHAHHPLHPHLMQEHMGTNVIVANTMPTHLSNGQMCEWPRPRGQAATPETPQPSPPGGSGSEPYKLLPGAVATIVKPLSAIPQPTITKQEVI
The experiment in a line: Selectivity interaction (Reporter gene assay) EUB0000081c HNF4A. Set-up: recommended concentration 1 uM.

In test [8] the target is Alpha-2B adrenergic receptor (Homo sapiens) (UniProt P18089). The experiment in a line: Selectivity interaction (Custom Panel of enzymes and receptors (Eurofins)) EUB0000234b ADRA2B. Set-up: recommended concentration 1 uM. The settings on record: at 10 µM.
Test [9] addresses Histamine H3 receptor (Homo sapiens) (UniProt Q9Y5N1). The experiment in a line: Selectivity interaction (Custom Panel of enzymes and receptors (Eurofins)) EUB0000234b HRH3. The arrangement: recommended concentration 1 uM. The settings on record: at 10 µM.
For test [10], the target named is Muscarinic acetylcholine receptor M2 (Homo sapiens) (UniProt P08172). The experiment in a line: Selectivity interaction (Custom Panel of enzymes and receptors (Eurofins)) EUB0000234b CHRM2. Set-up: recommended concentration 1 uM. The settings on record: at 10 µM.
A further test concerns the target Mu-type opioid receptor (Homo sapiens, UniProt P35372). The experiment in a line: Selectivity interaction (Custom Panel of enzymes and receptors (Eurofins)) EUB0000234b OPRM1. Set-up: recommended concentration 1 uM. The settings on record: at 10 µM.
The target in test [11] is T2, Alpha trans-inducing protein (Human alphaherpesvirus 1). The experiment in a line: Selectivity interaction (Reporter gene assay) EUB0000184b UL48. The arrangement: recommended concentration 1 uM.
Test [12] has as its target Nuclear receptor subfamily 4immunitygroup A member 1 (Homo sapiens) (UniProt P22736). The experiment in a line: Selectivity interaction (Reporter gene assay) EUB0000184b NR4A1. Set-up: recommended concentration 1 uM.
Test [13] has as its target T4, Hepatocyte nuclear factor 4-alpha (Homo sapiens). The experiment in a line: Selectivity interaction (Reporter gene assay) EUB0000184b HNF4A. Set-up: recommended concentration 1 uM.
Test [14] deals with T3, Retinoic acid receptor RXR-alpha (Homo sapiens). The experiment in a line: Selectivity interaction (Reporter gene assay) EUB0000184b RXRA. The arrangement: recommended concentration 1 uM.
For test [15], the target named is Steroidogenic factor 1 (Homo sapiens) (UniProt Q13285). The experiment in a line: Selectivity interaction (Reporter gene assay) EUB0000184b NR5A1. Set-up: recommended concentration 1 uM.
Test [16] deals with T1, Nuclear receptor subfamily 2 group C member 1 (Homo sapiens). The experiment in a line: Selectivity interaction (Reporter gene assay) EUB0000184b NR2C1. Set-up: recommended concentration 1 uM.
Test [17] concerns the target Nuclear receptor subfamily 2 group E member 1 (Homo sapiens) (UniProt Q9Y466). The experiment in a line: Selectivity interaction (Reporter gene assay) EUB0000184b NR2E1. Set-up: recommended concentration 1 uM.
The target in test [18] is 5-hydroxytryptamine receptor 2B (Homo sapiens) (UniProt P41595). The experiment in a line: Selectivity interaction (CEREP panel) EUB0000089c HTR2B. The arrangement: recommended concentration 1 uM. The settings on record: at 10 µM.
Test [19] concerns the target Adenosine receptor A2a (Homo sapiens) (UniProt P29274). The experiment in a line: Selectivity interaction (CEREP panel) EUB0000089c ADORA2A. The arrangement: recommended concentration 1 uM. The settings on record: at 10 µM.
The target of test [20] is Adenosine receptor A1 (Homo sapiens) (UniProt P30542). The experiment in a line: Selectivity interaction (CEREP panel) EUB0000089c ADORA1. The arrangement: recommended concentration 1 uM. The settings on record: at 10 µM.
Test [21] has as its target Sodium-dependent noradrenaline transporter (Homo sapiens) (UniProt P23975). The experiment in a line: Selectivity interaction (CEREP panel) EUB0000089c SLC6A2. Set-up: recommended concentration 1 uM. The settings on record: at 10 µM.
Test [22] has as its target T1, Nuclear receptor subfamily 2 group C member 1 (Homo sapiens). The experiment in a line: Selectivity interaction (Reporter gene assay) EUB0000183b NR2C1. Set-up: recommended concentration 3 uM.
Test [23] addresses T2, Alpha trans-inducing protein (Human alphaherpesvirus 1). The experiment in a line: Selectivity interaction (Reporter gene assay) EUB0000183b UL48. The arrangement: recommended concentration 3 uM.
In test [24] the target is T4, Hepatocyte nuclear factor 4-alpha (Homo sapiens). The experiment in a line: Selectivity interaction (Reporter gene assay) EUB0000183b HNF4A. Set-up: recommended concentration 3 uM.
Test [25] has as its target Steroidogenic factor 1 (Homo sapiens) (UniProt Q13285). The experiment in a line: Selectivity interaction (Reporter gene assay) EUB0000183b NR5A1. The arrangement: recommended concentration 3 uM.
For test [26], the target named is Nuclear receptor subfamily 2 group E member 1 (Homo sapiens) (UniProt Q9Y466). The experiment in a line: Selectivity interaction (Reporter gene assay) EUB0000183b NR2E1. Set-up: recommended concentration 3 uM.
In test [27] the target is Nuclear receptor subfamily 4immunitygroup A member 1 (Homo sapiens) (UniProt P22736). The experiment in a line: Selectivity interaction (Reporter gene assay) EUB0000183b NR4A1. Set-up: recommended concentration 3 uM.
Test [28] addresses T3, Retinoic acid receptor RXR-alpha (Homo sapiens). The experiment in a line: Selectivity interaction (Reporter gene assay) EUB0000183b RXRA. Set-up: recommended concentration 3 uM.

Nuclear receptor subfamily 2 group E member 1 (Homo sapiens), sequence (Q9Y466 whole entry): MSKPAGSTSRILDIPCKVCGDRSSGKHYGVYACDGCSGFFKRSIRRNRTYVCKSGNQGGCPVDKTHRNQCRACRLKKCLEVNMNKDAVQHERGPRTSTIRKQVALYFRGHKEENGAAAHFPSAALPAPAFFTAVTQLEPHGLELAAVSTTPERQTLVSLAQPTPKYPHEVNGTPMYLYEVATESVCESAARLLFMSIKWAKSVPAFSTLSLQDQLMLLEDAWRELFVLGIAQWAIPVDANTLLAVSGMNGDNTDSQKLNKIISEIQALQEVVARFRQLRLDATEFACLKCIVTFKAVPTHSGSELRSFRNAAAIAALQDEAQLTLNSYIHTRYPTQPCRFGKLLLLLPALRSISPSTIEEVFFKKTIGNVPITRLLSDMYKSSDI
Steroidogenic factor 1 (Homo sapiens), sequence (Q13285 whole entry): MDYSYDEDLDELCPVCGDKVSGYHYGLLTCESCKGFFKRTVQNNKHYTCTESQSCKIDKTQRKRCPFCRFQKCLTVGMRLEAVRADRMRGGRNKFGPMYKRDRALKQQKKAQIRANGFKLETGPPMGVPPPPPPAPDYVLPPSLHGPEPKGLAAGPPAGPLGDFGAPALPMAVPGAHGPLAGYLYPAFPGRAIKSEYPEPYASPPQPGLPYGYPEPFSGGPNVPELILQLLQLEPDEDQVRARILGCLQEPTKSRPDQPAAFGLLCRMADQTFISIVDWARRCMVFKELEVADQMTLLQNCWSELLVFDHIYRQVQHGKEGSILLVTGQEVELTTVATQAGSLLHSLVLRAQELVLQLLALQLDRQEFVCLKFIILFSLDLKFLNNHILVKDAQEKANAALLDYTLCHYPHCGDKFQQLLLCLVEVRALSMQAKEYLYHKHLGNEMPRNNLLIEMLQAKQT
T2 sequence (A0A5J6DW59 as listed by the source): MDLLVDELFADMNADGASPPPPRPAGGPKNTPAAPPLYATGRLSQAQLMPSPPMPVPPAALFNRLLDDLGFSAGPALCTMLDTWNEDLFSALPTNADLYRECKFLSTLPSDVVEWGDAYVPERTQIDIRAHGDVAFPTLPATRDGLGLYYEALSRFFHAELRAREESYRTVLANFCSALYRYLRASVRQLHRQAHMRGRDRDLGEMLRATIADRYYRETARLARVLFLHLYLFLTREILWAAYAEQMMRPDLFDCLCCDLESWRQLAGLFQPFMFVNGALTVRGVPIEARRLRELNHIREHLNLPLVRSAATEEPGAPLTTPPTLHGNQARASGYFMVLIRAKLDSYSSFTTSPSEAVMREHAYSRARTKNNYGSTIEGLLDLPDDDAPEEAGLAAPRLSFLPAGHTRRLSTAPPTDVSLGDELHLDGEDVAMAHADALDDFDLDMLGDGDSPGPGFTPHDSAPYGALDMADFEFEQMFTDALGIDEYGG
Nuclear receptor subfamily 4immunitygroup A member 1 (Homo sapiens), sequence (P22736 whole entry): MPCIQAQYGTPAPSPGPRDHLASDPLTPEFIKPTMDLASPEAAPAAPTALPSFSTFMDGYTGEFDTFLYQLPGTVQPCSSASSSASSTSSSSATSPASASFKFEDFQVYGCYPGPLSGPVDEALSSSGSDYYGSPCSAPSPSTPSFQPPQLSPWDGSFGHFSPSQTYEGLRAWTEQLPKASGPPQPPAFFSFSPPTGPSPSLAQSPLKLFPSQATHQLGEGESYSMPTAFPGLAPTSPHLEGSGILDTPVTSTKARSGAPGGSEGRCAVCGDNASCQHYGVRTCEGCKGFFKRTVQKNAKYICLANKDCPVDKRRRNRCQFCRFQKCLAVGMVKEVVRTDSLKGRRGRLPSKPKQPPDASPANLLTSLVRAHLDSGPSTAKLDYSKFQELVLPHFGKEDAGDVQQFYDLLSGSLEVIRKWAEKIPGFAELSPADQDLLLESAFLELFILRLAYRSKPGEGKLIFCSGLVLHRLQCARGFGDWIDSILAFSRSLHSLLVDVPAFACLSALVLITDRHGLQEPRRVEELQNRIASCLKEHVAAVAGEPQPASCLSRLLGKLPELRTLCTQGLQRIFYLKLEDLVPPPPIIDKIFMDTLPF
Muscarinic acetylcholine receptor M2 (Homo sapiens), sequence (P08172 whole entry): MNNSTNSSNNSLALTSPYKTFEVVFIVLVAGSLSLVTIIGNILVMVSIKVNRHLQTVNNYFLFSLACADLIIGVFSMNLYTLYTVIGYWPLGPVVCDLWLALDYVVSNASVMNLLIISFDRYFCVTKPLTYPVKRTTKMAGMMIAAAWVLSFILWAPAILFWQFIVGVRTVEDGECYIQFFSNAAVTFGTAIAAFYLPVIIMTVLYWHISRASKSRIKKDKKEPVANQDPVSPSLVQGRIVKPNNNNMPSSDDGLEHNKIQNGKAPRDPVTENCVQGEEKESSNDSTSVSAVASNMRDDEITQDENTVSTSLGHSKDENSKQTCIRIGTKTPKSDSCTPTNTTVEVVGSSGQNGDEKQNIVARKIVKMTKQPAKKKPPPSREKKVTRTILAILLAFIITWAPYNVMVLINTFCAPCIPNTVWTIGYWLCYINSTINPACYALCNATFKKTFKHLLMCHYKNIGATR
Histamine H3 receptor (Homo sapiens), sequence (Q9Y5N1 whole entry): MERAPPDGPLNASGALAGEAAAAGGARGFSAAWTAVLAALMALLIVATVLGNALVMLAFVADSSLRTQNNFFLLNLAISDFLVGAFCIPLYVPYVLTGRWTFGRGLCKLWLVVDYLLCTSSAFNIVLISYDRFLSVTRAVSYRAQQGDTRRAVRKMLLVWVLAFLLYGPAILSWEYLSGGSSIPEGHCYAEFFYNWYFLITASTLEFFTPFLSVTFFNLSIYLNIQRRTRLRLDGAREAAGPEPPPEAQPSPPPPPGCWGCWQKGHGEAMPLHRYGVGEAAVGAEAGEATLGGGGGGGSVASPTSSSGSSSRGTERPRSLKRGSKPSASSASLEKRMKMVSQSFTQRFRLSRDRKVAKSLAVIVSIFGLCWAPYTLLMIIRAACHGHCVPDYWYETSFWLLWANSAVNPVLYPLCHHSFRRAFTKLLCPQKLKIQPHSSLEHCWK
Adenosine receptor A2a (Homo sapiens), sequence (P29274 whole entry): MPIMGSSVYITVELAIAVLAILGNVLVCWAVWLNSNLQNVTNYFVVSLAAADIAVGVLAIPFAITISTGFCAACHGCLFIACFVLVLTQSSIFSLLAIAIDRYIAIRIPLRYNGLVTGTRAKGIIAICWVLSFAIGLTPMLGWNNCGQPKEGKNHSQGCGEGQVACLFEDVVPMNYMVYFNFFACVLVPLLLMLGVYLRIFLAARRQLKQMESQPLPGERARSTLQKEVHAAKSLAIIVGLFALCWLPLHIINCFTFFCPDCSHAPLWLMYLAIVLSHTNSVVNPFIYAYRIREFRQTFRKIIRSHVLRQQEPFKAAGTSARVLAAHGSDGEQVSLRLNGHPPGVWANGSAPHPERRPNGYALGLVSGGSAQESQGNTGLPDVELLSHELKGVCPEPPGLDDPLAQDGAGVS
Alpha-2B adrenergic receptor (Homo sapiens), sequence (P18089 whole entry): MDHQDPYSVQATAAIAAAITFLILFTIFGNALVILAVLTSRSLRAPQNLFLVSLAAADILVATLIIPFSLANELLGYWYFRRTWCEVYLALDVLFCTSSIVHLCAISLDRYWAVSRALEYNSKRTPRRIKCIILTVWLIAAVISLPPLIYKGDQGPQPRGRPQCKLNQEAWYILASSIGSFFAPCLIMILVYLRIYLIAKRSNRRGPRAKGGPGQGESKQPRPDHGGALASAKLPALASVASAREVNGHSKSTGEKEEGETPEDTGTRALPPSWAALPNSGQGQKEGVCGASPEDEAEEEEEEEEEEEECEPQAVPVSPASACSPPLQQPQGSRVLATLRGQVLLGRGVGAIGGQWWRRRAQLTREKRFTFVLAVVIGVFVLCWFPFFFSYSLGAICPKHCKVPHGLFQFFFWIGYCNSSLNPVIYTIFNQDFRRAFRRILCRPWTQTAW
Sodium-dependent noradrenaline transporter (Homo sapiens), sequence (P23975 whole entry): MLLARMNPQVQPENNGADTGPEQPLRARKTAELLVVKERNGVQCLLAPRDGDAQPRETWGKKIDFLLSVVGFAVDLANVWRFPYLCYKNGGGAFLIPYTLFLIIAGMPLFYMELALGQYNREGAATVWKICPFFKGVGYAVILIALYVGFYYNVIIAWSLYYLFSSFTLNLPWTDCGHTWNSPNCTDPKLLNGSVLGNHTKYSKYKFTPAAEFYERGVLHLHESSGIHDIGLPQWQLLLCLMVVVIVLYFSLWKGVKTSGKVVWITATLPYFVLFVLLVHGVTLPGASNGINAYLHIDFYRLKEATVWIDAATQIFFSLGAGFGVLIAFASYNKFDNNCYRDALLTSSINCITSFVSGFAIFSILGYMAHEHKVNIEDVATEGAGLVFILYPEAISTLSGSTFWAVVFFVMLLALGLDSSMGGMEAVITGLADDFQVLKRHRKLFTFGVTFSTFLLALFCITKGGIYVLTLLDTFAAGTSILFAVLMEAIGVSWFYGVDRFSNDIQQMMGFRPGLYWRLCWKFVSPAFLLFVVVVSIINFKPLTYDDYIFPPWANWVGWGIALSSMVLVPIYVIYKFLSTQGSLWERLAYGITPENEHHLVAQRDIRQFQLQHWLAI
Mu-type opioid receptor, sequence (P35372 whole entry): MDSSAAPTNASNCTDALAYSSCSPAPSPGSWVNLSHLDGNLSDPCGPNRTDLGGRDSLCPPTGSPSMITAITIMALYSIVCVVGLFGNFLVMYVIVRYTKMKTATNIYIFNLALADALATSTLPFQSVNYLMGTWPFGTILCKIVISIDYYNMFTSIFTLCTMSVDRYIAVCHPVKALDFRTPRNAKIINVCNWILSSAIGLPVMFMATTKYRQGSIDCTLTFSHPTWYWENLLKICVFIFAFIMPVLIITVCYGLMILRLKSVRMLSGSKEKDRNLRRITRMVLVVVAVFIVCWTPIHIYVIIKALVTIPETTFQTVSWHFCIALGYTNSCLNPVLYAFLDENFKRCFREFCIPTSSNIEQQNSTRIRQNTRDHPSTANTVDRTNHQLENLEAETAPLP

For `CC[C@H]1[C@@H](O)[C@@H]2[C@H](CC[C@]3(C)[C@@H]([C@H](C)CCC(=O)O)CC[C@@H]23)[C@@]2(C)CC[C@@H](O)C[C@@H]12`, the Fold activation in test [1] was 1.19; in test [2], 1.13; in test [3], 1.23; in test [6], 1.04; in test [7] it was 1.14. The compound further had a P-value in test [4] of 0.000147. In [5], this compound registered a Relative activation of 0.53%.
With `COc1cc(OC)cc(-c2noc(N3CCN(C)C4(CCN(c5ccnc(C)c5)CC4)C3)n2)c1`, the Inhibition of control (in test [8]; in test [9]; in test [10]; at Mu-type opioid receptor) was above 50% throughout.
In [11], `CC(C)c1onc(-c2c(Cl)cccc2Cl)c1COc1ccc(/C=C/c2cccc(C(=O)O)c2)c(Cl)c1` gave a P-value of 3.89e-13. The Fold activation in [12] was found to be 1.41; in [13], 1.24; in test [16], 1.33; in [17], 1.12. Also, the Relative activation in test [14] was found to be 0.803%. For the same compound, the Remaining activity in test [15] worked out at 0.927.
On to `Nc1nc(NC2CC2)cc(-c2cccc(Cl)c2Cl)n1`, for which the Inhibition of control in test [18] stood at 92%; in test [19] it was 81%; in test [20], 79%; in [21] it was 99%.
Turning to `Cc1cc(C)c(S(=O)(=O)N(Cc2ccc(-c3cccc(S(C)(=O)=O)c3)cc2)Cc2ccc(C(F)(F)F)o2)c(C)c1`, the Fold activation in test [22] is 1.06; in test [24] it was 1.28; in test [25], 1.29; in test [26] it was 1.26. Further, the P-value in test [23] stood at 0.011. Moreover, in test [27], the Remaining activity amounted to 0.982. Moreover, in test [28], the Relative activation turned out to be 0.984%.
